From US20260174742A1, “INHIBITORS OF CYCLIC ADP RIBOSE HYDROLASE AND METHODS OF USE THEREOF” (Flagship Pioneering Innovations VI, LLC, priority 2022, published 2026)

Biological target: T1, Human recombinant CD38 (Homo sapiens, UniProt P28907)
T1 construct: purchased BPS Bioscience
T1 sequence (P28907 1-300): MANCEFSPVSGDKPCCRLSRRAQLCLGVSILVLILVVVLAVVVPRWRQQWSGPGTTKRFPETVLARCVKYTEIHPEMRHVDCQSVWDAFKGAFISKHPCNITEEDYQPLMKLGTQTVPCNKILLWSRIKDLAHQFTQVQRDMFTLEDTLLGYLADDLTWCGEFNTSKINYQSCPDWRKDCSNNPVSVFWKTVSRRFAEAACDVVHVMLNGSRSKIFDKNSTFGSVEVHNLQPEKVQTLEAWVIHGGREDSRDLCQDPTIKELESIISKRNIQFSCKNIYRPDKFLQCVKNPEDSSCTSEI
Test: CD38 hydrolase inhibition assay (ε-NAD substrate, fluorescence)
Type: biochemical
Settings: 0.2 ng/μL CD38, 100 μM ε-NAD, 15 m at room temperature, excitation 300 nm, emission 410 nm
Experimental: Example 9: CD38 Hydrolase Inhibition Assay
The CD38 hydrolase inhibition assay measures the glycohydrolase activity of CD38, using an NAD analog as substrate and measuring formation of a fluorescent ADP ribose analog. A 4× buffer was prepared with 1M sucrose and 160 mM Tris-HCl at pH 7.4, for a final assay concentration of 250 mM sucrose and 40 mM Tris-HCl. The 4× solution was kept at 4° C. and warmed to room temperature before use. Tween20 was added to 1× buffer for a final concentration of 0.05%. Human recombinant CD38 (BPS Bioscience) was diluted to 0.4 ng/μL in 1× buffer and 12.5 μL added to each plate well. Inhibitors were added and DMSO content was normalized to the highest concentration on the plate, with an upper limit of 0.5%. Finally, ε-NAD was diluted to 200 μM in 1× buffer and 12.5 μL added to each plate well, for final well concentrations of 0.2 ng/μL CD38 and 100 μM ε-NAD. Plates were covered and incubated at room temperature for 15 m, and then read on a plate reader using excitation 300 nm and emission 410 nm. […] IC50s for test compounds were determined either using GraphPad Prism software v9.3, or CDD Vault.

IC50 [nM]	Compound
> 1000	CO[C@H]1CC[C@H](NS(=O)(=O)c2cc(C)cc(-n3ccnc3)c2)CC1 [Compound 108, 3-(imidazol-1-yl)-5-methyl-N-[(trans)-4-methoxycyclohexyl]benzene sulfonamide]
100 to 1000	CO[C@H]1CC[C@H](NC(=O)c2cc(C)cc(-n3ccnc3)c2)CC1 [Compound 101, 3-(imidazol-1-yl)-5-methyl-N-[(trans)-4-methoxycyclohexyl]benzamide]
100 to 1000	CO[C@H]1CC[C@H](NC(=O)c2cc(N3CC[C@H](O)C3)cc(-n3ccnc3)c2)CC1 [Compound 104, 3-[(3S)-3-hydroxypyrrolidin-1-yl]-5-(imidazol-1-yl)-N-[(trans)-4-methoxycyclohexyl]benzamide]
< 100	COCCO[C@H]1CC[C@H](NC(=O)c2cc(-c3cnn(C)c3)cc(-c3cncs3)c2)CC1 [Compound 107, 3-(1-methylpyrazol-4-yl)-N-[(trans)-4-(2-methoxyethoxy)cyclohexyl]-5-(1,3-thiazol-5-yl)benzamide]
100 to 1000	CO[C@H]1CC[C@H](NC(=O)c2cc(-c3cncs3)cc(N3CCC[C@@H]3CO)c2)CC1 [Compound 105, 3-[(2R)-2-(hydroxymethyl)pyrrolidin-1-yl]-N-[(trans)-4-methoxycyclohexyl]-5-(1,3-thiazol-5-yl)benzamide]
< 100	CO[C@H]1CC[C@H](NC(=O)c2cc(-c3cnn(C)c3)cc(-n3ccnc3)c2)CC1 [Compound 102, 3-(imidazol-1-yl)-5-(1-methylpyrazol-4-yl)-N-[(trans)-4-methoxycyclohexyl]benzamide]
